Patent US10689378B2, “Triazolopyridine compounds and uses thereof” (Novartis AG, priority 2016, dated 2020)
Where two headings read alike, the source gives them in different places.

What was measured:
EED (1-441)-His protein = target: T1, EED (1-441)-His protein (Homo sapiens, UniProt O75530); assay: EED-H3K27Me3 peptide competition binding assay by AlphaScreen
T1 construct: 30 nM EED (1-441)-His protein
Outline: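 Serially diluted compound (12 points, 3-fold) incubated 20 min with 30 nM EED(1-441)-His and 15 nM biotin-H3K27Me3(19-33) peptide in 25 mM HEPES pH 8, 0.02% Tween-20, 0.5% BSA. Ni-chelate acceptor/streptavidin donor beads (10 μg/mL each) added, 1 h rt dark; 615 nm emission normalized to controls, dose-response fit for IC50.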

[1] = target: wild type PRC2 (wtPRC2) complex (Homo sapiens, UniProt O75530); assay: EED LC-MS assay (SAH production by PRC2); type: biochemical
Outline: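 LC-MS/MS readout of SAH (d4-SAH standard) after TFA quench gives PRC2 activity, normalized to controls and fitted to dose-response for IC50. Reaction: 12 nM EZH2/SUZ12/EED/Rbap48/AEBP complex, 1 μM SAM, 1.5 μM H3[21-44] peptide, 120 min rt, 20 min compound preincubation.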

[2] = system: H3K27 methylation in G401 cell; assay: ELISA (H3K27 methylation) assay in G401 cells; type: cell-based, human; settings: Homo sapiens
Outline: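 IC50 from dose-response fit of percent inhibition relative to DMSO, using H3K27me3/me2 ELISA signal (ECL) normalized to histone H3. Histones HCl-extracted after 48 h compound exposure of G401 cells at up to 20 μM, 8- or 12-point 3-fold series.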

[3] = EED-H3K27Me3 peptide competition, AlphaScreen, read-out: (a) IC50 EED Alphascreen binding Qualified
[4] = PRC2 LC-MS assay, read-out: (b) IC50 EED LC-MS Qualified
[5] = G-401, H3K27 methylation ELISA, read-out: (c) IC50 ELISA Qualified
[6] = read-out: (a) IC50, EED Alphascreen binding Qualified
[7] = read-out: (b) IC50, EED LC-MS Qualified
[8] = G-401, read-out: (c) IC50, ELISA Qualified
[9] = read-out: (a) IC50 EED Alphascreen binding Qualified
[10] = read-out: (b) IC50 EED LC-MS Qualified
[11] = G-401, read-out: (c) IC50 ELISA Qualified

wild type PRC2 (wtPRC2) complex, sequence (O75530 whole entry): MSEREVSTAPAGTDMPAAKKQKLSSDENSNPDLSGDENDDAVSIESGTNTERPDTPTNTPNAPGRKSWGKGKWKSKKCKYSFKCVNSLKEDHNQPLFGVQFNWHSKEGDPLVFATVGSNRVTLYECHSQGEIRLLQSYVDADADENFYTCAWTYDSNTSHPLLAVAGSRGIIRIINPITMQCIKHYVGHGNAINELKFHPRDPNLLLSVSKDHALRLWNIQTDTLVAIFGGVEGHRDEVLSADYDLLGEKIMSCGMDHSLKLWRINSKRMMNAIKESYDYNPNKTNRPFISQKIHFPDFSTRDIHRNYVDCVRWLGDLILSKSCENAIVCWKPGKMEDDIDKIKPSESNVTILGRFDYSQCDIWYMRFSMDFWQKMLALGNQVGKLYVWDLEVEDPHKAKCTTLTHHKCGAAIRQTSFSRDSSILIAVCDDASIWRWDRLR
wild type PRC2 (wtPRC2) complex, sequence (Q15910 whole entry partner): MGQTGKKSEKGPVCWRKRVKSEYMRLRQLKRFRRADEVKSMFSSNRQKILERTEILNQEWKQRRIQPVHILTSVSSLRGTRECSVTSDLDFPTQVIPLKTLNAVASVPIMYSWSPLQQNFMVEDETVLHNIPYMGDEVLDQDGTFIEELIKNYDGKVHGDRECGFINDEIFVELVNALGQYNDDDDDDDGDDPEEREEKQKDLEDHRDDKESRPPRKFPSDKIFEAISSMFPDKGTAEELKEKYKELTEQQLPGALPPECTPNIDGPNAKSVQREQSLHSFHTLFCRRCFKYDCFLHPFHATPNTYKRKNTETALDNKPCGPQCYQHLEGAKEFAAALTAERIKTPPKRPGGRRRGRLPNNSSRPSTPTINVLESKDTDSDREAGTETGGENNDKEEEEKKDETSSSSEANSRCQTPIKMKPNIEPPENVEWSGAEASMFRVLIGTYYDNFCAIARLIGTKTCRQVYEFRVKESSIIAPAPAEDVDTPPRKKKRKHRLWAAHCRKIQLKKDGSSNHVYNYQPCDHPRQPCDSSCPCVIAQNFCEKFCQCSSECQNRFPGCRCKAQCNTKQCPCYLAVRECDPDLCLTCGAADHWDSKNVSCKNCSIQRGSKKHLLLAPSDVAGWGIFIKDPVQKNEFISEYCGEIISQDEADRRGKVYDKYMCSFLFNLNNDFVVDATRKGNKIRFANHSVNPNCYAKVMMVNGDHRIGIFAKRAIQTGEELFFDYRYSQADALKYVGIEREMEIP
wild type PRC2 (wtPRC2) complex, sequence (Q15022 whole entry partner): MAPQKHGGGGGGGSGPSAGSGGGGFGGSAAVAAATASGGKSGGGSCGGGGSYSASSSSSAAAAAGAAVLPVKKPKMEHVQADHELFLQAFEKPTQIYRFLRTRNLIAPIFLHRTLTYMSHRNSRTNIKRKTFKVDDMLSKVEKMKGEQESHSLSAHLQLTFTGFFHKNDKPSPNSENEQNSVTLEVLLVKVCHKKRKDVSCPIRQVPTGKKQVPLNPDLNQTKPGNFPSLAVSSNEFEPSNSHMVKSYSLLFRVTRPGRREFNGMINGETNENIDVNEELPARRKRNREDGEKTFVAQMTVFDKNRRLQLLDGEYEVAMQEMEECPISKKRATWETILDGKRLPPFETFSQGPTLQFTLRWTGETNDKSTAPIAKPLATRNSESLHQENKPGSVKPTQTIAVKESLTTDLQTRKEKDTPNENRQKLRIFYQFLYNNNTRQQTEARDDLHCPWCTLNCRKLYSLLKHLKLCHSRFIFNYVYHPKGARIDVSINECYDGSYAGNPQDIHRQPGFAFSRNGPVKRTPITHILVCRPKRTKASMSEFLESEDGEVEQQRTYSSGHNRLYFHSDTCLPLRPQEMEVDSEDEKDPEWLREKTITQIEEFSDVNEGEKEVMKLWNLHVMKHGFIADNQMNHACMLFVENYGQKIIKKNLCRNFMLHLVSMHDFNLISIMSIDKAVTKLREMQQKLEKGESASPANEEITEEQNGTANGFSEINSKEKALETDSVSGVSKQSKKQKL
wild type PRC2 (wtPRC2) complex, sequence (Q09028 whole entry partner): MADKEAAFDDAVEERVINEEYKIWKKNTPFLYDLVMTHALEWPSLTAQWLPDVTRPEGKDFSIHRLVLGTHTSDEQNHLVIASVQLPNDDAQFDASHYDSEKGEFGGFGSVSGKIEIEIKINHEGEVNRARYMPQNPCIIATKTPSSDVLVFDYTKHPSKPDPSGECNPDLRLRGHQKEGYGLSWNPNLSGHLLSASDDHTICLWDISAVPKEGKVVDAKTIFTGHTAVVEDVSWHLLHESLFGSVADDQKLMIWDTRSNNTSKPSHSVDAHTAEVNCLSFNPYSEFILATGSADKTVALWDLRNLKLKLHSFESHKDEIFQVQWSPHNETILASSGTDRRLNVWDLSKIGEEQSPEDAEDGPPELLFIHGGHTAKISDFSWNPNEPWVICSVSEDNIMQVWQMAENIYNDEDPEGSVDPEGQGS
wild type PRC2 (wtPRC2) complex, sequence (Q6ZN18 whole entry partner): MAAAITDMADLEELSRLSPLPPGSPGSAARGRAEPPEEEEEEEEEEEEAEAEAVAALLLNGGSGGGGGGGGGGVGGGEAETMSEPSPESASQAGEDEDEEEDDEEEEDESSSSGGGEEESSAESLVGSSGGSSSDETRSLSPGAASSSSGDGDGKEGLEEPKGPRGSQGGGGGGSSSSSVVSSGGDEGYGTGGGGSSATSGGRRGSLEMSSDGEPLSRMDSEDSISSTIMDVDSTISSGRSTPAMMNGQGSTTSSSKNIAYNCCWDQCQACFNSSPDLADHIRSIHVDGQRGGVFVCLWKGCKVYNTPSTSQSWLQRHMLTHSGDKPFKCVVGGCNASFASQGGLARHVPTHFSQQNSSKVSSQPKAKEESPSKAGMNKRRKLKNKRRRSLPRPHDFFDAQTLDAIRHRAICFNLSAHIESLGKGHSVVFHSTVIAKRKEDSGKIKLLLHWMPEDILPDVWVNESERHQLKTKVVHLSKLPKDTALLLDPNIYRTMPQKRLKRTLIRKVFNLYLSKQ
T1 sequence (O75530 whole entry): as the sequence (O75530 whole entry) above

Row | SMILES | IC50 (EED (1-441)-His protein; [3]) | IC50 [1, 4] | IC50 [2, 5] | IC50 (EED (1-441)-His protein; [6]) | IC50 [1, 7] | IC50 [2, 8] | also measured
1 | COc1cccc(F)c1CNc1ccc(-c2ccccc2Cl)c2nncn12 [Example 192, 8-(2-chlorophenyl)-N-(2-fluoro-6-methoxybenzyl)-[1,2,4]triazolo[4,3-a]pyridin-5-amine] | 88.8 nM | 348 nM | 118 nM |  |  |  | 
2 | COc1cccc(F)c1CNc1ccc(-c2cccnc2F)c2nncn12 [Example 166, N-(2-fluoro-6-methoxybenzyl)-8-(2-fluoropyridin-3-yl)-[1,2,4]triazolo[4,3-a]pyridin-5-amine] |  |  |  | 25.2 nM | 20.4 nM | 33.3 nM | 
3 | COc1cccc(F)c1CNc1ccc(-c2ccc(C)nc2)c2nncn12 [Example 164, N-(2-fluoro-6-methoxybenzyl)-8-(6-methylpyridin-3-yl)-[1,2,4]triazolo[4,3-a]pyridin-5-amine] |  |  |  | 33.2 nM | 120 nM | 36 nM | 
4 | CCn1nccc1-c1ccc(NCc2c(F)cccc2OC)n2cnnc12 [Example 233, 8-(1-ethyl-1H-pyrazol-5-yl)-N-(2-fluoro-6-methoxybenzyl)-[1,2,4]triazolo[4,3-a] pyridin-5-amine] | 14 nM | 47.8 nM | 15.3 nM |  |  |  | 
5 | COc1ccccc1CNc1ccc(-c2ccc(C(=O)N(C)C)cc2)c2nncn12 [Example 41, 4-(5-((2-methoxybenzyl)amino)-[1,2,4]triazolo[4,3-a]pyridin-8-yl)-N,N-dimethyl benzamide] |  |  |  | 24.9 nM | 305 nM | 47.4 nM | 
6 | COc1ccc(-c2ccc(NCc3c(F)cccc3OC)n3cnnc23)cn1 [Example 173, N-(2-fluoro-6-methoxybenzyl)-8-(6-methoxypyridin-3-yl)-[1,2,4]triazolo [4,3-a]pyridin-5-amine] | 36.3 nM | 123 nM | 40.3 nM |  |  |  | 
7 | COc1cccc(F)c1CNc1ccc(-c2ccnc(CCO)c2)c2nncn12 [Example 175, 2-(4-(5-((2-fluoro-6-methoxybenzyl)amino)-[1,2,4]triazolo[4,3-a]pyridin-8-yl)pyridin-2-yl)ethanol] | 35.9 nM | 148 nM | 23.9 nM |  |  |  | 
8 | COc1ccccc1CNc1ccc(-c2cccc(CCN(C)C)c2)c2nncn12 [Example 94, 8-(3-(2-(dimethylamino)ethyl)phenyl)-N-(2-methoxybenzyl)-[1,2,4]triazolo[4,3-a] pyridin-5-amine] |  |  |  | 26.5 nM | 62.3 nM | 41.1 nM | 
9 | COc1cccc(F)c1CNc1ccc(-c2ccc(F)nc2C)c2nncn12 [Example 222, 8-(6-fluoro-2-methylpyridin-3-yl)-N-(2-fluoro-6-methoxybenzyl)-[1,2,4]triazolo[4,3-a] pyridin-5-amine] | 9.9 nM | 122 nM | 9.9 nM |  |  |  | 
10 | COc1ncc(-c2ccc(NCc3ccccc3OC)n3cnnc23)cn1 [Example 52, N-(2-methoxybenzyl)-8-(2-methoxypyrimidin-5-yl)-[1,2,4]triazolo[4,3-a]pyridin-5-amine] |  |  |  | 89.4 nM | 735 nM | 106 nM | 
11 | COc1ccccc1CNc1ccc(-c2ccc(CN(C)C)cc2F)c2nncn12 [Example 70, 8-(4-((dimethylamino)methyl)-2-fluorophenyl)-N-(2-methoxybenzyl)-[1,2,4] triazolo[4,3-a]pyridin-5-amine] |  |  |  | 37.6 nM | 188 nM | 334 nM | 
12 | COc1cccc(F)c1CNc1ccc(-c2cncc(O)c2)c2nncn12 [Example 207, 5-(5-((2-fluoro-6-methoxybenzyl)amino)-[1,2,4]triazolo[4,3-a]pyridin-8-yl) pyridin-3-ol] | 24.9 nM | 467 nM | 74.8 nM |  |  |  | 
13 | COc1cccc(F)c1CNc1ccc(-c2cnc(F)cc2C)c2nncn12 [Example 248, 8-(6-fluoro-4-methylpyridin-3-yl)-N-(2-fluoro-6-methoxybenzyl)-[1,2,4]triazolo[4,3-a] pyridin-5-amine] | 16.5 nM | 81.8 nM | 9.6 nM |  |  |  | 
14 | COc1ccccc1CNc1ccc(-c2ccnc(C)c2)c2nncn12 [Example 91, N-(2-methoxybenzyl)-8-(2-methylpyridin-4-yl)-[1,2,4] triazolo[4,3-a]pyridin-5-amine] |  |  |  | 37.5 nM | 278 nM | 60.8 nM | 
15 | COc1cccc(F)c1CNc1ccc(-c2ccc(C(C)C)nc2C)c2nncn12 [Example 351, N-(2-fluoro-6-methoxybenzyl)-8-(6-isopropyl-2-methylpyridin-3-yl)-[1,2,4]triazolo[4,3-a]pyridin-5-amine] |  |  |  |  |  |  | IC50 (EED (1-441)-His protein; [9]): 23.4 nM; IC50 [1, 10]: 22.9 nM; IC50 [2, 11]: 15.5 nM
16 | COc1cccc(F)c1CNc1ccc(-c2cnccc2F)c2nncn12 [Example 181, N-(2-fluoro-6-methoxybenzyl)-8-(4-fluoropyridin-3-yl)-[1,2,4]triazolo[4,3-a] pyridin-5-amine] | 11.2 nM | 44.2 nM | 11.4 nM |  |  |  | 
17 | COc1cccc(F)c1CNc1ccc(-n2cccn2)c2nncn12 [Example 357, N-(2-fluoro-6-methoxybenzyl)-8-(1H-pyrazol-1-yl)-[1,2,4]triazolo[4,3-a]pyridin-5-amine] |  |  |  |  |  |  | IC50 (EED (1-441)-His protein; [9]): 25.6 nM; IC50 [1, 10]: 144 nM; IC50 [2, 11]: 38.9 nM
18 | COc1cccc(F)c1CNc1ccc(-n2ccnc2C)c2nncn12 [Example 362, N-(2-fluoro-6-methoxybenzyl)-8-(2-methyl-1H-imidazol-1-yl)-[1,2,4]triazolo [4,3-a]pyridin-5-amine] |  |  |  |  |  |  | IC50 (EED (1-441)-His protein; [9]): 39.8 nM; IC50 [1, 10]: 33.4 nM; IC50 [2, 11]: 17 nM
19 | COc1cccc(F)c1CNc1ccc(-c2ccc(NC(C)=O)nc2)c2nncn12 [Example 196, N-(5-(5-((2-fluoro-6-methoxybenzyl)amino)-[1,2,4]triazolo[4,3-a]pyridin-8-yl)pyridin-2-yl)acetamide] | 25.3 nM | 164 nM | 43.8 nM |  |  |  | 
20 | COc1cc(F)cc(F)c1CNc1ccc(-c2ccc(CN(C)C)cc2)c2nncn12 [Example 162, N-(2,4-difluoro-6-methoxybenzyl)-8-(4-((dimethylamino)methyl)phenyl)-[1,2,4]triazolo[4,3-a]pyridin-5-amine] |  |  |  | 16.6 nM | 77.5 nM | 14.3 nM | 
21 | COc1cccc(F)c1CNc1ccc(-c2ccc(NC(=O)N(C)C)nc2C)c2nncn12 [Example 368, 3-(5-(5-((2-fluoro-6-methoxybenzyl)amino)-[1,2,4]triazolo[4,3-a]pyridin-8-yl)-6-methylpyridin-2-yl)-1,1-dimethylurea] |  |  |  |  |  |  | IC50 (EED (1-441)-His protein; [9]): 11.7 nM; IC50 [1, 10]: 70.9 nM; IC50 [2, 11]: 6.5 nM
22 | COc1ccccc1CNc1ccc(-c2ccc(CCN(C)C)cc2)c2nncn12 [Example 123, 8-(4-(2-(dimethylamino)ethyl)phenyl)-N-(2-methoxybenzyl)-[1,2,4]triazolo[4,3-a] pyridin-5-amine] |  |  |  | 42 nM | 368 nM | 99.4 nM | 

Continued, in another order:

Row | IC50 (EED (1-441)-His protein; [3]) | IC50 [1, 4] | IC50 [2, 5] | IC50 (EED (1-441)-His protein; [6]) | IC50 [1, 7] | IC50 [2, 8] | SMILES | also measured
23 | 31.4 nM | 20.1 nM | 10.6 nM |  |  |  | COc1cccc(F)c1CNc1ccc(-c2ccc(S(C)(=O)=O)nc2C(F)F)c2nncn12 [Example 293, 8-(2-(difluoromethyl)-6-(methylsulfonyl)pyridin-3-yl)-N-(2-fluoro-6-methoxybenzyl)-[1,2,4] triazolo[4,3-a]pyridin-5-amine] | 
24 | 15.8 nM | 60.6 nM | 11.6 nM |  |  |  | COc1cccc(F)c1CNc1ccc(-c2ccc(O)nc2C)c2nncn12 [Example 309, 5-(5-((2-fluoro-6-methoxybenzyl)amino)-[1,2,4]triazolo[4,3-a]pyridin-8-yl)-6-methylpyridin-2-ol] | 
25 | 23.3 nM | 71.8 nM | 21.6 nM |  |  |  | COc1cccc(F)c1CNc1ccc(-c2c(C)nn(C3CC3)c2C)c2nncn12 [Example 275, 8-(1-cyclopropyl-3,5-dimethyl-1H-pyrazol-4-yl)-N-(2-fluoro-6-methoxybenzyl)-[1,2,4]triazolo[4,3-a] pyridin-5-amine] | 
26 | 14.3 nM | 20.2 nM | 6.5 nM |  |  |  | COc1cccc(F)c1CNc1ccc(-c2ccc(C#N)nc2C)c2nncn12 [Example 250, 5-(5-((2-fluoro-6-methoxybenzyl)amino)-[1,2,4]triazolo[4,3-a]pyridin-8-yl)-6-methylpicolinonitrile] | 
27 | 7.7 nM | 21.5 nM | 7.8 nM |  |  |  | COc1cccc(F)c1CNc1ccc(-c2ccc(C)nc2C(F)F)c2nncn12 [Example 315, 8-(2-(difluoromethyl)-6-methylpyridin-3-yl)-N-(2-fluoro-6-methoxybenzyl)-[1,2,4]triazolo[4,3-a]pyridin-5-amine] | 
28 | 52.6 nM | 94.6 nM | 28.2 nM |  |  |  | COc1cccc(F)c1CNc1ccc(-c2cc(C)ncc2C)c2nncn12 [Example 305, 8-(2,5-dimethylpyridin-4-yl)-N-(2-fluoro-6-methoxybenzyl)-[1,2,4]triazolo[4,3-a] pyridin-5-amine] | 
